In PMC4685510, “A Cell Biologist’s Field Guide to Aurora Kinase Inhibitors” (Frontiers in Oncology, 2015):

What was measured:
Assay in all cases: biochemical
Assay type in all cases: biochemical
[1] = target: T1, 363 human kinases (including Aurora A/B/C) (Homo sapiens, UniProt O94806); settings: PKCnu/PRKD3; for remaining activity at 0.1 µM: 100 nM; for remaining activity at 0.1 µM / remaining activity at 0.5 µM: read-out: % Enzyme Activity (relative to DMSO controls)
T1 sequence (O94806 1-890): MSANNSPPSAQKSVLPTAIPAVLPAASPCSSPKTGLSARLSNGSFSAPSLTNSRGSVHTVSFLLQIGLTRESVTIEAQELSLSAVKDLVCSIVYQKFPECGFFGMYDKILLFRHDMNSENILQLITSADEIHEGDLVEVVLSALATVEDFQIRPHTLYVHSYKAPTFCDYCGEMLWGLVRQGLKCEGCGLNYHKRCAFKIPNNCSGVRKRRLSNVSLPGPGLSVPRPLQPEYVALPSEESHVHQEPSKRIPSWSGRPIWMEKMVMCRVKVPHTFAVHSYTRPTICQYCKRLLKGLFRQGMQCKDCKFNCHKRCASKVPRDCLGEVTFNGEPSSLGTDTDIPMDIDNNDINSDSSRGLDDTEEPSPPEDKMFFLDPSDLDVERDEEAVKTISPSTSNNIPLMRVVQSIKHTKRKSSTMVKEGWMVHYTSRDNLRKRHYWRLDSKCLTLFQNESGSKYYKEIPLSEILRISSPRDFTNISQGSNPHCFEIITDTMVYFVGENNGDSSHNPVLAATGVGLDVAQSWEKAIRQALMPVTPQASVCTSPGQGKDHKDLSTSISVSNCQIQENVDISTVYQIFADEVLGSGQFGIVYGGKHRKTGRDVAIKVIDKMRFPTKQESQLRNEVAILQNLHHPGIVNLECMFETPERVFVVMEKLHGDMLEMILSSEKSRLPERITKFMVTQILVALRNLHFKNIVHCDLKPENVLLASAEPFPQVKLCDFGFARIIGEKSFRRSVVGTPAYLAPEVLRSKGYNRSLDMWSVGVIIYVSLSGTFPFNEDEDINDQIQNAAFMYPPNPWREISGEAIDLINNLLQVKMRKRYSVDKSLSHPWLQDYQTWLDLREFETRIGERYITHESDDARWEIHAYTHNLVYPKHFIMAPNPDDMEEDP
Source text: (§1) However, the Aurora A/B selectivity ratios derived from our in vitro and in vivo data can be compared to prioritize inhibitors.

[2] = target: T2, 363 human kinases (including Aurora A/B/C) (Homo sapiens, UniProt P43403); settings: ZAP70; for remaining activity at 0.1 µM: 100 nM; for remaining activity at 0.1 µM / remaining activity at 0.5 µM: read-out: % Enzyme Activity (relative to DMSO controls)
T2 sequence (P43403 1-619): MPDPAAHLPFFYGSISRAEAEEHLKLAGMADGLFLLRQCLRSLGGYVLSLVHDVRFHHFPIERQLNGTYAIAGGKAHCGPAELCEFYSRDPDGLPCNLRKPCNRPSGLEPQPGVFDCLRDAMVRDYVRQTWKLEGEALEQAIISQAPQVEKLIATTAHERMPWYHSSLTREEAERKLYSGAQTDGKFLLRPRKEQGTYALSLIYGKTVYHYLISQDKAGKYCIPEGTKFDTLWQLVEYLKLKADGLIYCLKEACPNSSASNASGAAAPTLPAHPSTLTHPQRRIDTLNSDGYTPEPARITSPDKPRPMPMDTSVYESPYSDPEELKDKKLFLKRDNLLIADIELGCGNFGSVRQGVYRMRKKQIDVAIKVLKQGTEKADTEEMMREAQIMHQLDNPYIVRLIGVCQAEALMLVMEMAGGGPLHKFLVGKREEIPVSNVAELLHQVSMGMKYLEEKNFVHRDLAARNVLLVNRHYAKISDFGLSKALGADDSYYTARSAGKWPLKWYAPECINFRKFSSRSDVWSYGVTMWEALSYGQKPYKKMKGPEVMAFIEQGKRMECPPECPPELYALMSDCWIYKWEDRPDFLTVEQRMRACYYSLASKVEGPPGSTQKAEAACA
Source text: as §1

[3] = target: 363 human kinases (including Aurora A/B/C) (Homo sapiens, UniProt Q16644); settings: MAPKAPK3; for remaining activity at 0.1 µM: 100 nM; for remaining activity at 0.1 µM / remaining activity at 0.5 µM: read-out: % Enzyme Activity (relative to DMSO controls)
Chain of 363 human kinases (including Aurora A/B/C) (Homo sapiens, UniProt Q16644) (Q16644 whole entry): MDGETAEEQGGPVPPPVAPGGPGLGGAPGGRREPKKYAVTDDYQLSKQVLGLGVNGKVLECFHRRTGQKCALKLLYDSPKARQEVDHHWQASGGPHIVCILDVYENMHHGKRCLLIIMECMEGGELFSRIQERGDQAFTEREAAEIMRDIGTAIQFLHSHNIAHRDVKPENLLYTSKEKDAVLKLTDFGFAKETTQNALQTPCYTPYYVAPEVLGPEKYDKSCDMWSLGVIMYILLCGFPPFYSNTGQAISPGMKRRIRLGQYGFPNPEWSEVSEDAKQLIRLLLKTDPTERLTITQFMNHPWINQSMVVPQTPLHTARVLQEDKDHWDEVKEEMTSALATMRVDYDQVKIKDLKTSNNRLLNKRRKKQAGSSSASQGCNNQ
Source text: as §1

[4] = target: T3, 363 human kinases (including Aurora A/B/C) (Homo sapiens, UniProt P51813); settings: BMX/ETK, [ATP] 50 µM; for remaining activity at 0.1 µM: 100 nM; for remaining activity at 0.1 µM / remaining activity at 0.5 µM: read-out: % Enzyme Activity (relative to DMSO controls)
T3 sequence (P51813 1-675): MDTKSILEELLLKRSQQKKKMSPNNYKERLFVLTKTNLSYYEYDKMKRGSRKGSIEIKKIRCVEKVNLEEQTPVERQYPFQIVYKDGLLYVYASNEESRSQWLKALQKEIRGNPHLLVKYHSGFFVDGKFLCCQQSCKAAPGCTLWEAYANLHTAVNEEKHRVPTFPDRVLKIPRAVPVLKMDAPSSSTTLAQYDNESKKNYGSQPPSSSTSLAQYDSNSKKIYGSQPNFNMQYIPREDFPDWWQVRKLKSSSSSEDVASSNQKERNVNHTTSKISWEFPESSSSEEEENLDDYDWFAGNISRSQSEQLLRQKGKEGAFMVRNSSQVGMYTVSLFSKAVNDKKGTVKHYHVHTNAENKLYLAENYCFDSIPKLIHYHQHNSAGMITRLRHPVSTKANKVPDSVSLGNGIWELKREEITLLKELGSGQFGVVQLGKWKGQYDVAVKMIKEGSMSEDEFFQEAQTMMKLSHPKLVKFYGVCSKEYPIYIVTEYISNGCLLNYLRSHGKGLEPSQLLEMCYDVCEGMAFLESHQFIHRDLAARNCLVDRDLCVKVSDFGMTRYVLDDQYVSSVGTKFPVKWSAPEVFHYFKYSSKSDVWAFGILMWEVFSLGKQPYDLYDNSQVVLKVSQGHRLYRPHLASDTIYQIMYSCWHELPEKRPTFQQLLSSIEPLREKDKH
Source text: as §1

`CCn1cc(-c2ccnc3[nH]c(-c4cccc(CN(C)C)c4)cc23)c(-c2ccc(NC(=O)N(C)C)cc2)n1` [GSK1070916] showed a remaining activity at 0.1 µM [1] of 76.8%, a remaining activity at 0.1 µM [2] of 105% and a remaining activity at 0.1 µM [3] of 93.8%. It also gave a remaining activity at 0.1 µM [4] of 96.1%.
For `O=C(c1cccc(Cl)c1F)N1CCN(Cc2cccc(Nc3nccs3)n2)CC1` [MK-8745], the “% Enzyme Activity (relative to DMSO controls)” value ([1]; 500 nM) was 75.68%, the remaining activity at 0.5 µM ([1]; 500 nM) was 79% and the “% Enzyme Activity (relative to DMSO controls)” value ([2]; 500 nM) was 97.69%. The remaining activity at 0.5 µM ([2]; 500 nM) was 109%, the “% Enzyme Activity (relative to DMSO controls)” value ([3]; 500 nM) was 87.18% and the remaining activity at 0.5 µM ([3]; 500 nM) was 88.7%. The “% Enzyme Activity (relative to DMSO controls)” value ([4]; 500 nM) was 88.19% and the remaining activity at 0.5 µM ([4]; 500 nM) was 90.7%.
For `O=C(O)[C@]1(Cc2cccc(Nc3nccs3)n2)CC[C@@H](Oc2cccc(Cl)c2F)CC1` [MK-5108], the remaining activity at 0.1 µM [1] was 97.1%, the remaining activity at 0.5 µM ([1]; 500 nM) was 87.9% and the remaining activity at 0.1 µM [2] was 103%. The remaining activity at 0.5 µM ([2]; 500 nM) was 113%, the remaining activity at 0.1 µM [3] was 99.7% and the remaining activity at 0.5 µM ([3]; 500 nM) was 84.9%. The remaining activity at 0.1 µM [4] was 48.1% and the remaining activity at 0.5 µM ([4]; 500 nM) was 14.2%.
